Assay results published in US11866431B2, “Bicyclic compounds” (Vivace Therapeutics, Inc., priority 2018, dated 2024).

Each compound was assayed on 8XTBD luciferase reporter (YAP reporter) in HEK293T cells (assay: YAP Reporter Assay). Settings: Homo sapiens, HEK-293T; HEK293T cells stably transfected with 8XTBD luciferase reporter and pRLTK; 24-hr incubation; top concentration 3 μM; read-out: Firefly Luciferase IC50.
Type: cell-based
Procedure, shortened: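 HEK293T cells stably carrying 8XTBD firefly luciferase and TK-renilla (3×10^3 cells/well) dosed 3-4 h after plating with compounds from 3 μM final, 1:3 dilution, 10 points, quadruplicates. After 24 h at 37° C, Dual-Glo readings gave IC50 and maximum inhibition reported separately for firefly and renilla.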

| SMILES | IC50 [µM] |
| --- | --- |
| C[C@H](NC(=O)c1ccc2c(-c3ccc(C(F)(F)F)cc3)cccc2c1)C1(O)CNC1 [Compound 155, (S)—N-(1-(3-hydroxyazetidin-3-yl)ethyl)-5-(4-(trifluoromethyl)phenyl)-2-naphthamide] | 0.1 to 1 |
| O=C(NCCC/C=C/COc1ccon1)c1ccc2c(-c3ccc(C(F)(F)F)cc3)cccc2c1 [Compound 198, N-[(E)-6-isoxazol-3-yloxyhex-4-enyl]-5-[4-(trifluoromethyl)phenyl]naphthalene-2-carboxamide] | < 0.1 |
| C[C@H](CO)NC(=O)c1cnc2c(-c3ccc(C(F)(F)F)cc3)cccc2c1 [Compound 99, (R)—N-(1-hydroxypropan-2-yl)-8-(4-(trifluoromethyl)phenyl)quinoline-3-carboxamide] | < 0.1 |
| O=C(NCc1cccc(COc2c(F)cccc2F)n1)c1ccc2c(-c3ccc(C(F)(F)F)cc3)cccc2c1 [Compound 187, N-((6-((2,6-difluorophenoxy)methyl)pyridin-2-yl)methyl)-5-(4-(trifluoromethyl)phenyl)-2-naphthamide] | 0.1 to 1 |
| O=C(NC(CO)c1ccccn1)c1cnc2c(-c3ccc(C(F)(F)F)cc3)cccc2c1 (centres unmarked) [Compound 260, N-[2-hydroxy-1-(2-pyridyl)ethyl]-8-[4-(trifluoromethyl)phenyl]quinoline-3-carboxamide] | < 0.1 |
| CC(C)NC(=O)c1ccc2c(-c3ccc(C(F)(F)F)cc3)cc3ocnc3c2c1 [Compound 71, N-isopropyl-5-(4-(trifluoromethyl)phenyl)naphtho[1,2-d]oxazole-8-carboxamide] | < 0.1 |
| C[C@@H](NC(=O)c1ccc2c(-c3ccc(C(F)(F)F)cc3)cccc2c1)c1ccccc1Cl [Compound 206, (R)—N-(1-(2-chlorophenyl)ethyl)-5-(4-(trifluoromethyl)phenyl)-2-naphthamide] | < 0.1 |
| CC(C)NC(=O)c1ccc2c(-c3ccc(C(F)(F)F)cc3)cn3ncnc3c2c1 [Compound 298, N-Isopropyl-6-(4-(trifluoromethyl)phenyl)-[1,2,4]triazolo[5,1-a]isoquinoline-9-carboxamide] | 0.1 to 1 |
| COC(=O)c1ccc2c(-c3ccc(C(F)(F)F)cc3)cncc2c1 [Compound 24, Methyl 4-[4-(trifluoromethyl)phenyl]isoquinoline-7-carboxylate] | < 0.1 |
| C[C@@H](NC(=O)c1ccc2c(-c3ccc(C(F)(F)F)cc3)cccc2c1)c1cccnc1N [Compound 218, (R)—N-[1-(2-amino-3-pyridyl)ethyl]-5-[4-(trifluoromethyl)phenyl]naphthalene-2-carboxamide] | < 0.1 |
| C[C@H](CN)NC(=O)c1ccc2c(-c3ccc(C(F)(F)F)cc3)cccc2c1 [Compound 60, (R)—N-(1-aminopropan-2-yl)-5-(4-(trifluoromethyl)phenyl)-2-naphthamide] | < 0.1 |
| NC(=O)/C=C/CCCNC(=O)c1ccc2c(-c3ccc(C(F)(F)F)cc3)cccc2c1 [Compound 202, N-[(E)-6-amino-6-oxo-hex-4-enyl]-5-[4-(trifluoromethyl)phenyl]naphthalene-2-carboxamide] | 0.1 to 1 |
| COCC(C)(C)NC(=O)c1ccc2c(-c3ccc(C(F)(F)F)cc3)cccc2c1 [Compound 212, N-(1-methoxy-2-methylpropan-2-yl)-5-(4-(trifluoromethyl)phenyl)-2-naphthamide] | < 0.1 |
| CCN1CC([C@@H](C)NC(=O)c2ccc3c(-c4ccc(C(F)(F)F)cc4)cccc3c2)C1 [Compound 148, N-[(1R)-1-(1-Ethylazetidin-3-yl)ethyl]-5-[4-(trifluoromethyl)phenyl]naphthalene-2-carboxamide] | 0.1 to 1 |
| C[C@@H](NC(=O)c1ccc2c(-c3ccc(C(F)(F)F)cc3)cccc2c1)c1cccc2ccc(=O)[nH]c12 [Compound 177, N-[(1R)-1-(2-oxo-1H-quinolin-8-yl)ethyl]-5-[4-(trifluoromethyl)phenyl]naphthalene-2-carboxamide] | < 0.1 |
| COC[C@@H](C)NC(=O)c1cnc2c(-c3ccc(C(F)(F)F)cc3)cc(OC)cc2c1 [Compound 107, 6-methoxy-N-[(1R)-2-methoxy-1-methyl-ethyl]-8-[4-(trifluoromethyl)phenyl]quinoline-3-carboxamide] | < 0.1 |
| O=C(O)c1ccc2c(-c3ccc(C(F)(F)F)cc3)cncc2c1 [Compound 336, 4-[4-(trifluoromethyl)phenyl]isoquinoline-7-carboxylic Acid] | 0.1 to 1 |
| C[C@@H](CN1CCCC1)NC(=O)c1ccc2c(-c3ccc(C(F)(F)F)cc3)cccc2c1 [Compound 66, (S)—N-(1-(pyrrolidin-1-yl)propan-2-yl)-5-(4-(trifluoromethyl)phenyl)-2-naphthamide] | 0.1 to 1 |
| C[C@H](NC(=O)c1ccc2c(-c3ccc(C(F)(F)F)cc3)cccc2c1)c1c[nH]cn1 [Compound 276, (S)—N-(1-(1H-imidazol-4-yl)ethyl)-5-(4-(trifluoromethyl)phenyl)-2-naphthamide] | 0.1 to 1 |

| SMILES | IC50 [µM] |
| --- | --- |
| C[C@@H](NC(=O)c1ccc2c(-c3ccc(C(F)(F)F)cc3)cccc2c1)c1cccc(N)n1 [Compound 129, (R)—N-(1-(6-aminopyridin-2-yl)ethyl)-5-(4-(trifluoromethyl)phenyl)-2-naphthamide] | < 0.1 |
| C[C@H](NC(=O)c1ccc2c(-c3ccc(C(F)(F)F)cc3)cccc2c1)c1cccc2cn[nH]c12 [Compound 183, N-[(1S)-1-(1H-indazol-7-yl)ethyl]-5-[4-(trifluoromethyl)phenyl]naphthalene-2-carboxamide] | 1 to 3 |
| CS(=O)(=O)NC(=O)c1cnc2c(-c3ccc(C(F)(F)F)cc3)cc(Cl)c(Cl)c2c1 [Compound 96, 5,6-dichloro-N-(methylsulfonyl)-8-(4-(trifluoromethyl)phenyl)quinoline-3-carboxamide] | 0.1 to 1 |
| CCS(=O)(=O)NC(=O)c1ccc2c(-c3ccc(C(F)(F)F)cc3)cccc2c1 [Compound 78, N-(ethylsulfonyl)-5-(4-(trifluoromethyl)phenyl)-2-naphthamide] | 0.1 to 1 |
| O=C(O)c1ccc2c(-c3ccc(C(F)(F)F)nc3)cccc2c1 [Compound 331, 5-(6-(trifluoromethyl)pyridin-3-yl)-2-naphthoic Acid] | 0.1 to 1 |
| C[C@H](CN1CCOCC1)NC(=O)c1ccc2c(-c3ccc(C(F)(F)F)cc3)cccc2c1 [Compound 70, (R)—N-(1-morpholinopropan-2-yl)-5-(4-(trifluoromethyl)phenyl)-2-naphthamide] | 1 to 3 |
| CSc1cc(-c2ccc(C(F)(F)F)cc2)c2ccc(C(=O)NC(C)C)cc2c1 [Compound 42, N-isopropyl-7-(methylthio)-5-(4-(trifluoromethyl)phenyl)-2-naphthamide] | < 0.1 |
| C#C[C@@H](C)NC(=O)c1ccc2c(-c3ccc(C(F)(F)F)cc3)cccc2c1 [Compound 275, (R)—N-(but-3-yn-2-yl)-5-(4-(trifluoromethyl)phenyl)-2-naphthamide] | < 0.1 |
| COc1cc(-c2ccc(C(F)(F)F)cc2F)c2ncc(C(=O)N[C@@H](C)c3ccccn3)cc2c1 [Compound 232, (S)-8-(2-Fluoro-4-(trifluoromethyl)phenyl)-6-methoxy-N-(1-(pyridin-2-yl)ethyl)quinoline-3-carboxamide] | < 0.1 |
| COC[C@H](C)NC(=O)c1ccc2c(-c3ccc(C(F)(F)F)cc3)cccc2n1 [Compound 246, (S)—N-(1-Methoxypropan-2-yl)-5-(4-(trifluoromethyl)phenyl)quinoline-2-carboxamide] | 0.1 to 1 |
| COc1cccc(CNC(=O)c2ccc3c(-c4ccc(C(F)(F)F)cc4)cccc3c2)c1 [Compound 240, N-(3-methoxybenzyl)-5-(4-(trifluoromethyl)phenyl)-2-naphthamide] | 0.1 to 1 |
| O=C(NC(CO)Cc1ccccn1)c1ccc2c(-c3ccc(C(F)(F)F)cc3)cccc2c1 (centres unmarked) [Compound 197, N-(1-hydroxy-3-(pyridin-2-yl)propan-2-yl)-5-(4-(trifluoromethyl)phenyl)-2-naphthamide] | 0.1 to 1 |
| C[C@H](CCN(C)C)NC(=O)c1ccc2c(-c3ccc(C(F)(F)F)cc3)cccc2c1 [Compound 313, N-[(1R)-3-(dimethylamino)-1-methyl-propyl]-5-[4-(trifluoromethyl)phenyl]naphthalene-2-carboxamide] | 0.1 to 1 |
| N#Cc1cc(CNC(=O)c2ccc3c(-c4ccc(C(F)(F)F)cc4)cccc3c2)ccn1 [Compound 186, N-((2-cyanopyridin-4-yl)methyl)-5-(4-(trifluoromethyl)phenyl)-2-naphthamide] | < 0.1 |
| COc1cc(-c2ccc(C(F)(F)F)cc2)c2ccc(C(=O)N[C@H](C)c3ccccn3)cc2c1 [Compound 293, (R)-7-Methoxy-N-(1-(pyridin-2-yl)ethyl)-5-(4-(trifluoromethyl)phenyl)-2-naphthamide] | < 0.1 |
| CC(C)NS(=O)(=O)c1ccc2c(-c3ccc(C(F)(F)F)cc3)cccc2c1 [Compound 6, N-isopropyl-5-(4-(trifluoromethyl)phenyl)naphthalene-2-sulfonamide] | 0.1 to 1 |
| CC(NC(=O)c1ccc2c(-c3ccc(C(F)(F)F)cc3)cccc2c1)c1nsc(C(N)=O)n1 (centres unmarked) [Compound 201, 3-(1-(5-(4-(Trifluoromethyl)phenyl)-2-naphthamido)ethyl)-1,2,4-thiadiazole-5-carboxamide] | < 0.1 |
| O=C(NCc1cccc(COc2ccon2)c1)c1ccc2c(-c3ccc(C(F)(F)F)cc3)cccc2c1 [Compound 192, N-(3-((isoxazol-3-yloxy)methyl)benzyl)-5-(4-(trifluoromethyl)phenyl)-2-naphthamide] | 0.1 to 1 |
| O=C(N[C@H](CO)c1ccccn1)c1ccc2c(-c3ccc(C(F)(F)F)cc3)cccc2c1 [Compound 162, N-[(1S)-2-hydroxy-1-(2-pyridyl)ethyl]-5-[4-(trifluoromethyl)phenyl]naphthalene-2-carboxamide] | 1 to 3 |
